The numbers were not newly measured in patent US10864304B2, “Anti-infective antimicrobial-containing biomaterials” (ATRIUM MEDICAL CORPORATION, priority 2009, dated 2020), which cites them from elsewhere.

Each structure is given as a SMILES string.

The test system of this data set is bacteria. Conditions: previously reported (K. C. Chaw et al. 2005).

For the molecule `[Ag]` [silver], the “amount of silver needed to produce an antimicrobial effect” value is given as around 50 ppb.
